In publication PMC11510424, “Developing Robust Human Liver Microsomal Stability Prediction Models: Leveraging Inter-Species Correlation with Rat Data” (Pharmaceutics, 2024):
Like-named read-outs stand apart in the source and are kept apart here.

Method: The substrate depletion method was used to determine half-life (t1/2) of compounds by measuring the disappearance of the parent compound over time. Incubations were performed on a Tecan EVO 200 robotic system (Morrisville, NC, USA), equipped with a 96-channel head, Inheco heating block, and controlled by EVOware software (Version 3.5). Mixed-gender human liver microsomes were purchased from Xenotech (Kansas City, KS, USA) (Catalog: H0610). Gentest NADPH Regenerating Solution A and B (Catalog: 451220/451200), Axygen reservoirs (Catalog: RES-SW384-LP/RES-SW384-HP) were purchased from Corning Inc. (Corning, NY, USA). Incubation plates (384-well, 250 µL; Catalog# 186002632) and LC/MS analysis plates (384-well, 100 µL; Catalog# 186002631) were purchased from Waters Inc. (Milford, MA, USA). […] An albendazole solution in acetonitrile (ACN/IS) was prepared for use as an internal standard. Each 110 μL reaction mixture included the test compound (1 μM), HLM (0.5 mg/mL), and NADPH regenerating system in phosphate buffer (pH 7.4). The samples were incubated in 384-well plates at 37 °C for 0, 5, 10, 15, 30, and 60 min. At each designated time point, 10 μL of the mixture was transferred to another 384-well plate containing cold ACN/IS. The plates were then centrifuged at 3000 rpm for 20 min at 4 °C, and supernatants were collected into a 384-well injection plate. Sample quantification was performed using Thermo UPLC/HRMS and data were analyzed using TraceFinder software (Version 4.1). The data were then extracted, and half-life analysis was performed using our in-house Validator software (Version 1.0) as described previously.
[1] = mixed-gender HLM 0.5 mg/mL, test compound 1 μM, NADPH regenerating system, pH 7.4, 37 °C, 0-60 min, mean ± S.D. over 6 years, > 40 plates, t1/2 capped at 120 min

Row | Half-Life (t1/2) (pH 7.4) | Half-Life (t1/2) [1] | Structure (SMILES)
1 | >120 min |  | Cc1cc(=O)n(-c2ccccc2)n1C [Antipyrine, antipyrine]
2 |  | 14.4 ± 4.1 min | O=C1CC2(CCCC2)CC(=O)N1CCCCN1CCN(c2ncccn2)CC1 [Buspirone, buspirone]
3 |  | 55.2 ± 10.1 min | CC(C)NCC(O)COc1cccc2ccccc12 (stereo not drawn) [Propranolol, propranolol]
